We go through eleven molecules from patent US12590093B2, “Indolo[2′,3′:3,4]pyrido[2,1-b]quinazoline compound and use thereof” (INSTITUTE OF MEDICINAL BIOTECHNOLOGY CHINESE ACADEMY OF …, priority 2019, dated 2026).

One data set has as its system ABCA1. The data set is described as follows: ABCA1 up-regulation, luciferase reporter in ABCA1P-LUC HepG2 cells. The conditions noted are these: Homo sapiens, 18 h, maximum up-regulation fold of luciferase activity versus DMSO, read-out: ABCA1 max. Type of data set: cell-based. How it is done: (§1) Experiments were conducted to detect whether the compounds of the disclosure can pharmacologically up-regulate the expression of ABCA1 and SR-BI. Firstly, ABCA1P-LUC HepG2 cells or SR-BI-LUC HepG2 cells in logarithmic growth phase were digested, diluted in cell culture medium, and counted. Cells were seeded into 96-well plates at a density of 5×10^5/ml (100 μL of the single-cell suspension per well). After cells fully adhered (about 6 h), the medium containing 10% FBS was removed, and the cells were gently washed with PBS. Serum free MEM-EBSS medium (200 μL per test well) and 2 μL of the compounds to be tested (at a final concentration of 10 μg/mL) were added to each test well, and meanwhile, DMSO at a corresponding concentration was added to the control well. After 18-24 h, the medium was removed. Cell Luciferase activity was measured by a method as described in the Luciferase Assay System. By optimizing the final concentration of DMSO, the treatment time of the compounds on the cells and the number of cells seeded into each well during the screening, the final screening conditions were determined as follows: each well is seeded with 5×10^4 cells, DMSO is added at a final concentration of 1%, and the sample is treated for 18 h.
(§2) The ratio of change of luciferase activity is calculated with the following formula: Ratio of change (%)=A/B×100;
(§3) wherein A is the luciferase activity (RLU) measured after the compound to be tested is added, and B is the luciferase activity (RLU) measured after the blank control (DMSO) is added. The luciferase activity of cells in each well was measured, and the dose-effect relationship between the concentration of the compound and the ratio of change of the luciferase activity was determined to calculate the EC50.
On the technique in general: A reporter such as luciferase makes a cellular process visible.

In a further data set the test system is SR-BI. The data set is described as follows: SR-BI up-regulation, luciferase reporter in SR-BI-LUC HepG2 cells. The conditions noted are these: Homo sapiens, 18 h, maximum up-regulation of luciferase activity versus DMSO, read-out: SR-BI max. The data set is classed as cell-based. The protocol:
as §1, §2, §3

The conditions of data set [1]: background statement; cited from earlier work.
A further data set has as its target T1, LXRα (Homo sapiens, UniProt Q13133).
T1 construct: expressed in transfected cells; host or cells: HepG2
T1 sequence (Q13133 209-447 limits assumed): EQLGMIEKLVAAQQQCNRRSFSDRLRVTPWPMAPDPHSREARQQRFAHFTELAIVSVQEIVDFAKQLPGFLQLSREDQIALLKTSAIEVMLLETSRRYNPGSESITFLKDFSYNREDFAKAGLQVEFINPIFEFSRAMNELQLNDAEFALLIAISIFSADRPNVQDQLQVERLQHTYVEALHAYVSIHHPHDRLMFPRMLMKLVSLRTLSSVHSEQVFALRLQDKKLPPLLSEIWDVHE
The data set is described as follows: Nuclear receptor reporter gene transient transfection (pBIND-hLXRs-LBD) in HepG2 cells, LXRα. Type of data set: cell-based. The conditions noted are these: for LXRα max: HepG2 cells, reporter gene, 18-24 h; for LXRα agonist activity: result in words. How it is done: (§4) HepG2 cells in logarithmic growth phase were digested, seeded into the white/clear 96-well plate at a density of 5×10^4 cells/well/100 μL until the cells grew to about 90% confluence and in good condition. 0.5 μL liposome (Lipofectamine® 2000) diluted with blank medium to 25 μL per well and incubated at room temperature for 5 min. The corresponding plasmids DNA (nuclear receptor plasmid:Gal4=1:10) were diluted in blank DMEM medium to 25 μL/well (mixing of two plasmids), then mixed evenly with the diluted liposome, and incubated for 20 min at 37° C. The DNA-liposome complex (50 μL per well) was added with the DMEM complete medium (100 μL per well) and mixed thoroughly to obtain a DNA-liposome complex cell culture. The cell medium was discarded, and replaced with the DNA-liposome complex cell culture (150 μL/well) (37° C., 5% CO2). After 6 h, the DNA-liposome complex cell culture medium was discarded, and 200 μL serum-free DMEM medium containing the compound at an appropriate concentration was added to each test well, and cultured for 18-24 h. The cell Luciferase activity was measured by the method as described in the Luciferase Assay System.

A further data set concerns the target T2, LXRβ (Homo sapiens, UniProt P55055).
T2 construct: expressed in transfected cells; host or cells: HepG2
T2 sequence (P55055 222-460 limits assumed): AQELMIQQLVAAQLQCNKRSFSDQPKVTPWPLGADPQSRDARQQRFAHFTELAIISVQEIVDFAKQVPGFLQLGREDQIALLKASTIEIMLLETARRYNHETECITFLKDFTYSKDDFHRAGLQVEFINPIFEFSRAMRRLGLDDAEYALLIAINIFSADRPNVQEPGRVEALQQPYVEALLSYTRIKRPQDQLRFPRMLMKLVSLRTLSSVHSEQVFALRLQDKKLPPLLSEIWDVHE
The data set is described as follows: Nuclear receptor reporter gene transient transfection (pBIND-hLXRs-LBD) in HepG2 cells, LXRβ. The data set is classed as cell-based. The note with it: for LXRβ max: HepG2 cells, reporter gene, 18-24 h; for LXRβ agonist activity: result in words. The protocol:
as §4

The structures appear in SMILES notation.

For the molecule `O=c1c2ccccc2nc2n1CCc1c-2[nH]c2ccccc12` [RUT, Rutaecarpine, reference compound], the maximal fold induction with ABCA1 was 2.09; in the data set on SR-BI, 2.12. The oral bioavailability result in data set [1] is “very low”.
Regarding `c1ccc2c(c1)CN1CCc3c([nH]c4ccccc34)C1N2` (stereo not shown) [TR2, 5,7,8,13,13b,14-hexahydroindolo[2′,3′:3,4]pyrido[2,1-b]quinazoline], the results for the maximal fold induction in the data set on ABCA1 and in the data set on SR-BI were 1.66 and 1.76, respectively.
Regarding `O=c1c2ccccc2nc2c3[nH]c4ccccc4c3ccn12` [TR4, indolo[2′,3′:3,4]pyrido[2,1-b]quinazolin-5(13H)-one], the maximal fold induction in the data set with ABCA1 stood at 1.84. For the same molecule, the maximal fold induction in the data set on SR-BI amounted to 1.74. For the same molecule, on LXRα, the LXRα max is 1.84 and the LXRα agonist activity entry is “showed agonist activity”. In addition, at LXRβ, the LXRβ max was found to be 1.88 and the LXRβ agonist activity result is listed as “showed agonist activity”.
As to `O=C1c2ccccc2N(C(=O)C(F)(F)F)C2c3[nH]c4ccccc4c3CCN12` (stereo not shown) [TR6, 14-(2,2,2-trifluoroacetyl)-8,13,13b,14-tetrahydroindolo[2′,3′:3,4]pyrido[2,1-b]quinazolin-5(7H)-one], the maximal fold induction in the data set on ABCA1 was found to be 1.96. The maximal fold induction in the data set with SR-BI came out at 1.56. Moreover, on LXRα, the LXRα max stood at 2.03 and the LXRα agonist activity entry was “showed agonist activity”. On LXRβ, the LXRβ max was determined as 1.69 and the LXRβ agonist activity entry was “showed agonist activity”.
As to `O=c1c2ccccc2nc2n1CCc1c-2[nH]c2c(Cl)cccc12` [TR10, 12-chloro-8,13-dihydroindolo[2′,3′:3,4]pyrido[2,1-b]quinazolin-5(7H)-one], the maximal fold induction in the data set with ABCA1 was 1.43; with SR-BI, 1.72.
The like results for `O=c1c2cccnc2nc2n1CCc1c-2[nH]c2c(Cl)cccc12` [TR11, 12-chloro-8,13-dihydropyrido[2″,3″:4′,5′]pyrimido[1′,2′:1,2]pyrido[3,4-b]indol-5(7H)-one] were, in that order, 1.57 and 1.68.
On the same counts, the results for `Cc1cccc2c3c([nH]c12)-c1nc2ncccc2c(=O)n1CC3` [TR12, 12-methyl-8,13-dihydropyrido[2″,3″: 4′,5′]pyrimido[1′,2′:1,2]pyrido[3,4-b]indol-5(7H)-one] are 1.51 and 1.44.
The like results for `O=c1c2cccnc2nc2n1CCc1c-2[nH]c2c(F)cccc12` [TR13, 12-fluoro-8,13-dihydropyrido[2″,3″:4′,5′]pyrimido[1′,2′:1,2]pyrido[3,4-b]indol-5(7H)-one] were, in that order, 1.54 and 1.72.
For the molecule `O=c1c2cccnc2nc2n1CCc1c-2[nH]c2ccc(Cl)cc12` [TR14, 10-chloro-8,13-dihydropyrido[2″,3″: 4′,5′]pyrimido[1′,2′:1,2]pyrido[3,4-b]indol-5(7H)-one], the maximal fold induction came to 1.48 with ABCA1 and 1.57 in the data set on SR-BI.
On the same counts, the results for `O=c1c2ccccc2cc2n1CCc1c-2[nH]c2ccccc12` [TY3, 8,13-dihydroindolo[2′,3′:3,4]pyrido[1,2-b]isoquinolin-5(7H)-one] are 1.97 and 1.41.
On the same counts, the results for `O=C1c2ccccc2OC2c3[nH]c4ccccc4c3CCN12` (stereo not shown) [TY4, 7,8,13,13b-tetrahydro-5H-benzo[5′,6′][1,3]oxazino[3′,2′:1,2]pyrido[3,4-13]indol-5-one] are 1.5 and 1.22.
